According to EP0558245A1, “Heterobicyclic compounds as antagogists of alpha-1 adrenergic and SHT1A receptors” (priority 1992, dated 1993):
Counter-ions that a name gives are not always drawn. Like-named read-outs stand apart in the source and are kept apart here.

Key:
α₁ receptors = experiment: [3H]prazosin binding (α1 receptors), rat cerebral cortex membranes; details: rat cerebral cortex crude membranes, [3H]prazosin 0.35 nM, 25°C 30 min; read-out: Receptor Binding IC50 (nM) α1
Procedure: Rat cerebral cortices were homogenized in 50 volumes of original wet weight of ice-cold 50 mM Tris-HCl buffer pH 7.4. The homogenates were centrifuged at 48,000 x g for 10 minutes, and the pellets were resuspended in the same volume of ice-cold buffer, centrifuged and resuspended two more times. The final pellets obtained were resuspended in the same volume of buffer and incubated according to the conditions reported in the table below.
(§1) The incubations were terminated after the appropriate time (see table) by rapid filtration through Whatman GF/B filters using a Brandel cell harvester. The filters were washed twice with 15 ml of ice-cold buffer (see table). The radioactivity retained on the filters was determined by liquid scintillation counting. Nonspecific binding (which amounted generally to 10-30%) was evaluated by adding high concentrations of the specific displacers (see table). All the compounds were initially tested at 1x10⁻⁶ M concentration, and in the presence of significant displacing activity, a complete competition curve was generated (down to a concentration of 10⁻¹¹ M). All the samples were run in triplicate.

5HT1A receptors = target: T1, 5HT1A receptors (Rattus norvegicus, UniProt P19327); experiment: [3H]8-OH-DPAT binding (5HT1A receptors), rat hippocampus membranes; details: rat hippocampus crude membranes, [3H]8-OH-DPAT 1.0 nM, 25°C 30 min; read-out: Receptor Binding IC50 (nM) 5-HT1a
T1 construct: Rat hippocampi were homogenized; from tissue; host or cells: rat hippocampus membranes
T1 sequence (P19327 1-422): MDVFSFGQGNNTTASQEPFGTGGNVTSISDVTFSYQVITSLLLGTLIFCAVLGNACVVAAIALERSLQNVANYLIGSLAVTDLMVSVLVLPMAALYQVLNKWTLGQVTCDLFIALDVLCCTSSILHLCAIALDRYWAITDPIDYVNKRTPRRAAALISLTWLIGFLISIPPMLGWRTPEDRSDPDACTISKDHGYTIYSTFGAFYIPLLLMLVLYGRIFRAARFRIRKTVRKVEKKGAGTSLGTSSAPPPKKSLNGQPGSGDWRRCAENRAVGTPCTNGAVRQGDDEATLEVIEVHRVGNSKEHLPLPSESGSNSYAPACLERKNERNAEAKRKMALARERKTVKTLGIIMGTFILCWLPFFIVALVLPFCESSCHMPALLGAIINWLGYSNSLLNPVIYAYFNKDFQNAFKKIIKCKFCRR
Procedure: Rat hippocampi were homogenized in 50 volumes of original wet weight of ice-cold 50 mM Tris-HCl buffer pH 7.4. The homogenates were centrifuged at 48,000 x g for 10 minutes, and the pellets were resuspended in the same volume of ice-cold buffer, incubated for 10 minutes at 37°C, centrifuged and resuspended two more times. The final pellets obtained were resuspended in the same volume of buffer and incubated according to the conditions reported in the table below.
as §1
The competition curves were always analyzed (to evaluate the IC₅₀ values) by non linear curve fitting of the logistic equation according to the method reported by De Lean et al. (Am. J. Physiol., 235, E97, 1978), utilizing the ALLFIT program [publically available from the National Institutes of Health (N.I.H.) Bethesda, Maryland, USA] written for the IBM PC.

[1] = Acute toxicity in mice after intraperitoneal and oral administration; details: mouse, in vivo, female albino Swiss mice, mortality recorded 7 days after administration
Procedure: Male Sprague Dawley rats [Crl: CD' BR] of 200-300 g b.w., female Albino Swiss mice [Crl: CD-1 (ICR) BR] 20-30 g b.w., and male Beagle dogs (10-12 kg b.w.) were obtained from Charles River, Italy and Nossan (Correzzana, Milan, Italy), respectively. Animals were housed with free access to food and water and maintained on forced light-dark cycle at 22-24°C until the day of experiments.
The acute toxicity of synthesized compounds was evaluated in female albino Swiss mice after intraperitoneal and oral administration. Four logarithmic scaled doses of the compounds were dissolved or suspended in 0.5% Methocel and administered in a volume of 10 ml/kg to groups of 4 mice/dose. Mortality was recorded 7 days after the administration. Data analysis: the LD₅₀ values and their fiducial limits were calculated according to the method of Weil (Biometrics, 8, 249, 1952).

[2] = ip, intraperitoneal, read-out: Acute Toxicity in Mice LD50 (mg/kg) i.p.
[3] = oral, read-out: Acute Toxicity in Mice LD50 (mg/kg) p.o.

SMILES	IC50 (α₁ receptors)	IC50 (5HT1A receptors)	LD50 at 168 h [1, 2]	LD50 at 168 h [1, 3]
Cc1ccccc1N1CCN(CC(O)c2cccc3c(=O)c(C)c(-c4ccccc4)oc23)CC1.Cl (stereo not shown) [Example 18, 8-{1-hydroxy-2-[4-(2-methylphenyl)-1-piperazinyl]-ethyl}-3-methyl-4-oxo-2-phenyl-4H-1-benzopyran hydrochloride]	270 nM	> 1000 nM	457 mg/kg	3000 mg/kg
COc1ccccc1N1CCN(CCNC(=O)Nc2cccc3c(=O)c(C)c(-c4ccccc4)oc23)CC1.CS(=O)(=O)O [Example 38, 8-{2-[4-(2-methoxyphenyl)-1-piperazinyl]-ethylureido}-3-methyl-4-oxo-2-phenyl-4H-1-benzopyran methanesulphonate]	20 nM	344 nM	> 500 mg/kg	> 2000 mg/kg
COc1ccccc1N1CCN(CCO/N=C/c2cccc3c(=O)c(C)c(-c4ccccc4)oc23)CC1 [Example 70, E-8-{2-[4-(2-methoxyphenyl)-1-piperazinyl]-ethoxyimino-methyl}-3-methyl-4-oxo-2-phenyl-4H-1-benzopyran]	53 nM	85 nM	> 500 mg/kg	1870 mg/kg
COc1ccccc1N1CCN(CCCN(C(C)=O)c2cccc3c(=O)c(C)c(-c4ccccc4)oc23)CC1.Cl.O [Example 36, 8-{N-acetyl-3-[4-(2-methoxyphenyl)-1-piperazinyl]-propylamino}-3-methyl-4-oxo-2-phenyl-4H-1-benzopyran hydrochloride hydrate]	18 nM	54 nM	> 500 mg/kg	> 2000 mg/kg
COc1ccccc1N1CCN(CCCCNC(=O)c2cccc3c(=O)c(C)c(-c4ccccc4)oc23)CC1.CS(=O)(=O)O [Example 60, 8-{4-[4-(2-methoxyphenyl)-1-piperazinyl]-butylcarbamoyl}-3-methyl-4-oxo-2-phenyl-4H-1-benzopyran methansulphonate]	25 nM	45 nM	203 mg/kg	329 mg/kg
Cc1c(-c2ccccc2)oc2c(C(=O)OCCCN3CCN(c4ccccc4Cl)CC3)cccc2c1=O.Cl.Cl [Example 7, 8-{3-[4-(2-chlorophenyl)-1-piperazinyl]-propoxycarbonyl}-3-methyl-4-oxo-2-phenyl-4H-1-benzopyran dihydrochloride]	86 nM	155 nM	384 mg/kg	1920 mg/kg
COc1ccccc1OCCNCCCNC(=O)c1cccc2c(=O)c(C)c(-c3ccccc3)oc12.Cl [Example 14, 8-{3-[2-(2-methoxyphenoxy)-ethylamino]-propylcarbamoyl}-3-methyl-4-oxo-2-phenyl-4H-1-benzopyran hydrochloride]	61 nM	6 nM	140 mg/kg	559 mg/kg
COc1ccccc1N1CCN(CCC(=O)Nc2cccc3c(=O)c(C)c(-c4ccccc4)oc23)CC1.Cl [Example 37, 8-{3-[4-(2-methoxyphenyl)-1-piperazinyl]-propionamido}-3-methyl-4-oxo-2-phenyl-4H-1-benzopyran hydrochloride]	32 nM	77 nM	> 500 mg/kg	> 2000 mg/kg
COc1ccccc1N1CCN(CC(=O)N(C)Cc2cccc3c(=O)c(C)c(-c4ccccc4)oc23)CC1 [Example 26, 8-{N-methyl-N-[4-(2-methoxyphenyl)-1-piperazinyl]-acetamidomethyl}-3-methyl-4-oxo-2-phenyl-4H-1-benzopyran hydrochloride hydrate]	270 nM	> 1000 nM	> 500 mg/kg	> 2000 mg/kg
CS(=O)(=O)O.Cc1c(-c2ccccc2)oc2c(C(=O)NCCCN3CCN(c4ncccn4)CC3)cccc2c1=O [Example 58, 8-{3-[4-(2-pyrimidinyl)-1-piperazinyl]-propylcarbamoyl}-3-methyl-4-oxo-2-phenyl-4H-1-benzopyran methanesulphonate]	≥ 1000 nM	126 nM	258 mg/kg	508 mg/kg
